Results on 3 molecules are retold here after paper PMC10743905, “Design, Synthesis, and In Vitro and In Vivo Bioactivity Studies of Hydrazide–Hydrazones of 2,4-Dihydroxybenzoic Acid” (International Journal of Molecular Sciences, 2023).

Values after ≈ are worked out from the molar mass of the structure shown. Like-named read-outs stand apart in the source and are kept apart here.

Holding throughout (test): Broth microdilution MIC/MBC
Assay type in all cases: cell-based
(In general: In broth dilution the organism is exposed to a series of concentrations in liquid medium.)

For assay [1], the system named is Bacillus subtilis ATCC 6633. From the text:
Detailed procedures are presented in the Supplementary Materials. […]
(§1) In vitro antimicrobial activity assays - Methodology
(§2) The examined compounds 1 - 24 were screened in vitro for antibacterial and antifungal activities using the broth microdilution method according to procedure reported earlier by our research group and European Committee on Antimicrobial Susceptibility Testing (EUCAST) and Clinical and Laboratory Standards Institute (CLSI) guidelines against a panel of reference and clinical or saprophytic strains of microorganisms, in-cluding Gram-positive bacteria, Staphylococcus aureus ATCC 43300 (Methicillin Resistant S. aureus – MRSA), Staphylococcus aureus ATCC 29213 (Methicillin Susceptible S. aureus – MSSA), Staphylococcus epidermidis ATCC 12228, Enterococcus faecalis ATCC 29212, Micro-coccus luteus ATCC 10240, Bacillus subtilis ATCC 6633 and Bacillus cereus ATCC 10876), Gram-negative bacteria (Bordetella bronchiseptica ATCC 4617, Escherichia coli ATCC 25922, Klebsiella pneumoniae ATCC 13883, Proteus mirabilis ATCC 12453, Salmonella typhimurium ATCC 14028 and Pseudomonas aeruginosa ATCC 9027) and fungi belonging to yeasts (Can-dida albicans ATCC 10231, Candida albicans ATCC 2091, Candida parapsilosis ATCC 22019, Candida glabrata ATCC 90030 and Candida krusei ATCC 14243). The microorganisms be-longing to ATCC came from American Type Culture Collection, routinely used for the evaluation of antimicrobials. All the used microbial cultures were first subcultured on nu-trient agar or Sabouraud agar at 35°C for 18-24 h or 30°C for 24-48 h for bacteria and fungi, […]
(§3) The surface of Mueller-Hinton agar (for bacteria) and RPMI 1640 with MOPS (for fungi) were inoculated with the suspensions of bacterial or fungal species. Microbial suspensions were prepared in sterile saline with an optical density of McFarland standard scale 0.5.
(§4) Samples containing examined compounds were dissolved in dimethyl sulfoxide (DMSO).
(§5) Furthermore, bacterial and fungal suspensions were put onto Petri dishes with solid me-dia containing 2 mg/mL of the tested compounds followed incubation at 37°C for 24h and 30°C for 48h for bacteria and fungi, respectively. The inhibition of microbial growth was judged by comparison with a control culture prepared without any sample tested. Ciprof-loxacin, vancomycin, nitrofurantoin, cefuroxime, ampicillin or nystatin (Sigma) were used as a reference antibacterial or antifungal compounds, respectively.
(§6) Subsequently, the MIC (Minimal Inhibitory Concentration) of the compounds was ex-amined by the microdilution broth method, using their two-fold dilutions in Mueller- […]
(§7) Hinton broth or (for bacteria) and RPMI 1640 broth with MOPS (for fungi) prepared in 96-well polystyrene plates. Final concentrations of the compounds ranged from 1000 to 0.488 µg/ml. Microbial suspensions were prepared in 0.85% NaCl with an optical density of 0.5 McFarland standard. Next each bacterial or fungal suspension was added per each well containing broth and various concentrations of the examined compounds. After incuba-

Assay [2] has as its system Staphylococcus epidermidis ATCC 12228. Conditions: ATCC12228, read-out: MIC.
Description: as §1
as §2, with “antimicrobials.” for “antimicrobials. All the used microbial cultures were first subcultured on nu-trient agar or Sabouraud agar at 35°C for 18-24 h or 30°C for 24-48 h for bacteria and fungi,”
(§8) Samples containing examined compounds were dissolved in dimethyl sulfoxide (DMSO). […]
as §6, §7

Assay [3] deals with Micrococcus luteus ATCC 10240.
Description: as §1
as §2, with “antimicrobials.” for “antimicrobials. All the used microbial cultures were first subcultured on nu-trient agar or Sabouraud agar at 35°C for 18-24 h or 30°C for 24-48 h for bacteria and fungi,”
as §8, §6, §7

Assay [4] has as its system Bacillus cereus ATCC 10876.
Description: as §1, §2, §3, §4, §5, §6, §7

Assay [5] deals with Salmonella typhimurium ATCC 14028.
Description: as §1
as §2, with “antimicrobials.” for “antimicrobials. All the used microbial cultures were first subcultured on nu-trient agar or Sabouraud agar at 35°C for 18-24 h or 30°C for 24-48 h for bacteria and fungi,”
as §8, §6, §7

One may read the MIC as the lowest concentration that inhibits growth of the organism. Regarding `CC1(C)S[C@@H]2[C@H](NC(=O)[C@H](N)c3ccccc3)C(=O)N2[C@H]1C(=O)O` [APC, ampicillin, reference compound], the MIC in assay [1] was 62.5 µg/mL (≈ 179 µM); in assay [1] (ATCC6633, read-out: MIC) it was 62.5 µg/mL (≈ 179 µM).

For the molecule `CO/N=C(\C(=O)N[C@@H]1C(=O)N2C(C(=O)O)=C(COC(N)=O)CS[C@H]12)c1ccco1` [CFX, cefuroxime, reference compound], the MIC in assay [2] worked out at 0.24 µg/mL (≈ 0.566 µM); in assay [3], 0.98 µg/mL (≈ 2.31 µM); in assay [3] (ATCC10240, read-out: MIC), 0.98 µg/mL (≈ 2.31 µM); in assay [1], 15.62 µg/mL (≈ 36.8 µM); in assay [1] (ATCC6633, read-out: MIC), 15.6 µg/mL (≈ 36.8 µM); in assay [4], 31.25 µg/mL (≈ 73.6 µM). The MIC in assay [4] (ATCC10876, read-out: MIC) is 31.2 µg/mL (≈ 73.6 µM).

In general, MBC refers to the smallest concentration meeting the test's criterion for killing. Lower therefore signals greater bactericidal potency. In the case of `O=C(O)c1cn(C2CC2)c2cc(N3CCNCC3)c(F)cc2c1=O` [CIP, ciprofloxacin, reference compound], the MBC/MIC in assay [5] amounted to 1. In assay [5] (Salmonella enterica), this molecule registered an MBC of 0.06 µg/mL (≈ 0.181 µM) and an MIC of 0.06 µg/mL (≈ 0.181 µM).
